Reference: patent US7902219B2, “2-benzoylimidazopyridine derivatives, preparation and therapeutic use thereof” (Sanofi-Aventis, priority 2006, dated 2011)

How the values were obtained:
human NOT receptor = assay: Binding to the human NOT receptor by SPR (surface plasmon resonance, Biacore S51); settings: immobilized GST-NOT (NOT-FL) and His-Thr-NOT 329-598, 3.75 to 0.1 μM, 4° C.
Experimental: Evaluation of the Binding to the Human NOT Receptor The direct binding between compounds of the invention and the human NOT receptor was evaluated using the SPR (surface plasmon resonance) technique. In this test, the protein is immobilized covalently on the matrix and the test molecule is injected into the chamber containing the sensor chip. The signal is directly proportional to the amount of product bound to the protein. The binding tests were performed in a Biacore S51 machine (Biacore Inc., Piscataway N.J.). The entire GST-NOT protein (NOT-FL) was supplied by Invitrogen (PV3265). The domain for binding to the NOT ligand (His-Thr-NOT 329-598) was expressed and purified as described in Nature 423, 555-560. The two proteins, diluted to a concentration of 20 μg/ml in pH 5.0 acetate buffer containing 5 mM of DTT, were immobilized on a surface of carboxymethyl 5′ dextran (CM5 sensor chip, Biacore Inc.) via amine coupling according to the protocol recommended by Biacore, eluting with an HBS-N buffer (10 mM HEPES, 0.15 M NaCl, 3 mM EDTA, pH 7.4). Approximately 10 000-15 000 resonance units (RU) of the proteins are captured on the surface of the sensor chip CM5. […] Each concentration of product is injected at 4° C. for 1 minute at 30 μl/min. The dissociation was recorded for 5 minutes without any other surface regeneration procedure. […]

murine Nurr1 receptor = target: T1, murine Nurr1 receptor (Mus musculus, UniProt Q06219); assay: In vitro activity on N2A cells (NBRE-luciferase reporter); assay type: cell-based; settings: N2A-8NBRE-luciferase cells, products incubated 24 hours
T1 construct: endogenously expressing the murine Nurr1 receptor; host or cells: Neuro-2A (N2A) mouse neuroblastoma cells stably transfected with 8NBRE-luciferase
T1 sequence (Q06219 whole entry): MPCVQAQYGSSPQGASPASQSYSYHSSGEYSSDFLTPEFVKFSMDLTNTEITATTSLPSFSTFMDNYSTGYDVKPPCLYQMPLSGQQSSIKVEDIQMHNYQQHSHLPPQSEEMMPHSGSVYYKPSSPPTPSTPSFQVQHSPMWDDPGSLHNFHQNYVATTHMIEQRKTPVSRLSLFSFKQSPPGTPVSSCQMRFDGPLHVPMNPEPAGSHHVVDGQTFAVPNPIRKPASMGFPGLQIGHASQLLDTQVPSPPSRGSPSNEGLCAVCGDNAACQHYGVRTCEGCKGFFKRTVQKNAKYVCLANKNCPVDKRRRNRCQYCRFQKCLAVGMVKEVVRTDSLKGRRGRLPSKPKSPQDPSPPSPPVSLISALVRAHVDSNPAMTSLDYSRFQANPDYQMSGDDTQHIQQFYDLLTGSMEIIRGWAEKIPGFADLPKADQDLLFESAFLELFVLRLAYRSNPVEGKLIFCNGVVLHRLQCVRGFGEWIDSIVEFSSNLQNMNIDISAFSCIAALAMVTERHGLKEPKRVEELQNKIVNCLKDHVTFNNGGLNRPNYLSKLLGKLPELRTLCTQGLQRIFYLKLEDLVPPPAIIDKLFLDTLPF
Experimental: Evaluation of the in vitro Activity on N2A Cells
The tests consisted in evaluating the in vitro activity of the compounds of the invention on a cell line (N2A) endogenously expressing the murine Nurr1 receptor and stably transfected with the NOT binding response element (NBRE) coupled to the luciferase reporter gene. The EC50 values are between 0.01 and 1000 nM. The tests were performed according to the procedure described hereinbelow.
The cell line Neuro-2A is obtained from a standard commercial source (ATCC). The clone Neuro-2A was obtained from a spontaneous tumor originating from a strain of albino mice A by R. J Klebe et al. This line Neuro-2A is then stably transfected with 8NBRE-luciferase. The N2A-8NBRE cells are cultured to the point of confluence in 75 cm^2 culture flasks containing DMEM supplemented with 10% fetal calf serum, 4.5 g/L of glucose and 0.4 mg/ml of geneticin. After culturing for one week, the cells are recovered with 0.25% trypsin for 30 seconds and then resuspended in DMEM without phenol red, containing 4.5 g/L of glucose and 10% Hyclone defatted serum, and placed in white, transparent-based 96-well plates. The cells are deposited at a rate of 60 000 per well in 75 μL for 24 hours before adding the products. The products are applied in 25 μL and incubated for a further 24 hours. On the day of measurement, an equivalent volume (100 μL) of Steadylite is added to each well, and the wells are then left for 30 minutes to obtain complete lysis of the cells and maximum production of the signal. The plates are then measured in a microplate luminescence counter, after having been sealed with an adhesive film. The products are prepared in the form of a 10^−2 M stock solution, and then diluted in 100% of DMSO. Each concentration of product is prediluted in culture medium before incubation with the cells thus containing 0.625% final of DMSO.

| affinity (classified by maximum binding level and kinetic parameters of binding to the immobilized protein) (human NOT receptor) | EC50 (murine Nurr1 receptor) | Structure (SMILES) |
| --- | --- | --- |
| moderate affinity | 0.3 nM | Cc1ccc2nc(C(=O)c3ccccc3)cn2c1.Cl [Compound 1, (6-Methylimidazo[1,2-a]pyridin-2-yl)(phenyl)methanone hydrochloride (1:1)] |
| moderate affinity | 0.2 nM | Br.CC(C)(O)c1ccc2nc(C(=O)c3ccccc3)cn2c1 [Compound 3, [6-(1-Hydroxy-1-methylethyl)imidazo[1,2-a]pyridin-2-yl] (phenyl)-methanone hydrobromide (1:1)] |
|  | 0.02 nM | O=C(c1ccccc1)c1cn2cc(-c3ccccc3)ccc2n1 [Compound 6, Phenyl(6-phenylimidazo[1,2-a]pyridin-2-yl)methanone] |
